Results reported in US6946453B2, “4-dedimethylaminotracycline derivatives” (CollaGenex Pharmaceuticals, Inc., priority 1998, dated 2005).

Tested on: BALB/c 3T3 (CCL-163) cells
Conditions: not given
Method: The assay used to assess phototoxicity is the so-called 3T3 Phototoxicity Assay. The assay compares the cytotoxicity of a series of doses of a test compound in the presence and absence of UVA/visible light.
Briefly, serial dilutions of a test compound are prepared, and are incubated with 3T3 cells in two 96-well plates. Following an initial incubation, the cells in one plate, the test cells receiving both the chemical and light, are exposed to UVA/visible light. In the second plate, the test cells receiving only the test chemical were treated the same way, except they are kept in the dark for the same amount of time.
Twenty-four hours after exposure, the test cells and the control cells are then incubated with neutral red dye. Neutral red dye is used to measure the relative number of living cells in each well. Live cells are stained with the dye while dead cells are not.
Phototoxicity is measured by the relative toxicity between the doses with and without light exposure following published guidelines.
Streptomycin sulfate ([…]) and penicillin (100 IU/ml) were added to the medium after the cells were treated with test article in 96-well plates.
Serial dilutions of the tetracycline derivatives were prepared in DMSO at concentrations 100× to final testing concentration. The COL dilutions in DMSO were then diluted in Hanks' Balanced Salt Solution (HBSS) for application to the cells. The final DMSO concentration was 1% in treated and control cultures. A dose range finding assay is conducted with eight serial dilutions covering a range of 100-0.03 μg/ml in half log steps. Definitive assays are conducted with 6-8 serial dilutions prepared in quarter log steps, centered on the expected 50% toxicity point as determined in the dose range finding assay. One hundred 100 μg/ml was the highest dose recommended to prevent false negative results from UV absorption by the dosing solutions. One dose range finding and at least two definitive trials were performed on each tetracycline derivative and control compound.
Controls: Each assay included both negative (solvent) and positive controls. Twelve wells of negative control cultures were used on each 96-well plate. Chlorpromazine (Sigma Chemicals) was used as the positive control and was prepared and dosed like the test tetracycline derivatives.
Solar Simulator: A Dermalight SOL 3 solar simulator, equipped with a UVA H1 filter (320-400 nm), was adjusted to the appropriate height. Measurement of energy through the lid of a 96-well microtiter plate was carried out using a calibrated UV radiometer UVA sensor. Simulator height was adjusted to deliver 1.7±0.1 mW/cm^2 of UVA energy (resulting dose was 1 J/cm^2 per 10 minutes of exposure).
Phototoxicity Assay: Duplicate plates were prepared for each test material by seeding 10^4 3T3 cells per well in complete medium 24 hours before treatment. Prior to treatment, the medium was removed, and the cells washed once with 125 μl of prewarmed HBSS. Fifty μl of prewarmed HBSS were added to each well. Fifty μl of each test article dilution were added to the appropriate wells and the plates returned to the incubator for approximately one hour. Six wells were treated with each dose of test or control article on each plate. Following the 1 hr incubation, the plates designated for the photo irradiation were exposed (with the lid on) to 1.7±0.1 mW/cm^2 UVA light for 50±2 minutes at room temperature resulting in an irradiation dose of 5 J/cm^2. Duplicate plates, designated for the measurement of cytotoxicity without light, were kept in the dark room temperature for 50±2 minutes. After the 50 minute exposure period (with or without light) the test article dilutions were decanted from the plates and the cells washed once with 125 μl of HBSS. One hundred μl of medium were added to all wells and the cells incubated as above for 24±1 hours.

Compound	PIF 2 (photoirritancy factor, IC50(-UVA)/IC50(+UVA), OECD draft guideline 432)	PIF 1 (photoirritancy factor, IC50(-UVA)/IC50(+UVA), earlier software)
O=C(NCN1CCNCC1)C1=C(O)CC2CC3Cc4cccc(O)c4C(=O)C3=C(O)C2(O)C1=O (stereo not shown) [COL 315, 2-CONHCH2-piperazin-1-yl-6-demethyl-6-deoxy-4-dedimethylaminotetracycline]	35.30	–
CN(C)c1cc([N+](=O)[O-])c(O)c2c1CC1CC3CC(O)=C(C(N)=O)C(=O)C3(O)C(O)=C1C2=O (stereo not shown) [COL 1002, 9-nitro-4-dedimethylaminominocycline]	1.35	–
O=C(NCN1CCCC1)C1=C(O)CC2CC3Cc4cccc(O)c4C(=O)C3=C(O)C2(O)C1=O (stereo not shown) [COL 312, 2-CONHCH2-pyrrolidin-1-yl-6-demethyl-6-deoxy-4-dedimethylaminotetracycline]	75.11	–
CN(C)c1ccc2c(c1O)C(=O)C1=C(O)C3(O)C(=O)C(C(N)=O)=C(O)CC3CC1C2 (stereo not shown) [COL 306, 9-dimethylamino-6-demethyl-6-deoxy-4-dedimethylaminotetracycline]	1.56	–
O=C(NCN1CCOCC1)C1=C(O)CC2CC3Cc4cccc(O)c4C(=O)C3=C(O)C2(O)C1=O (stereo not shown) [COL 314, 2-CONHCH2-morpholin-1-yl-6-demethyl-6-deoxy-4-dedimethylaminotetracycline]	89.48	–
CC1c2cccc(O)c2C(=O)C2=C(O)C3(O)C(=O)C(C(=O)NCN4CCCC4)=C(O)CC3C(O)C21 (stereo not shown) [COL 807, 2-CONHCH2-pyrrolidin-1-yl-4-dedimethylaminodoxycycline]	–	40.4
NC(=O)C1=C(O)C[C@@H]2C[C@@H]3Cc4cccc(O)c4C(=O)C3=C(O)[C@]2(O)C1=O [COL 3, 6-demethyl-6-deoxy-4-dedimethylaminotetracycline]	84.72	–
CC1c2cccc(O)c2C(=O)C2=C(O)C3(O)C(=O)C(C(N)=O)=C(O)CC3C(O)C21 (stereo not shown) [COL 8, 4-dedimethylaminodoxycycline]	82.61	–
NC(=O)C1=C(O)CC2CC3Cc4ccc([N+](=O)[O-])c(O)c4C(=O)C3=C(O)C2(O)C1=O (stereo not shown) [COL 303, 9-nitro-6-demethyl-6-deoxy-4-dedimethylaminotetracycline]	13.82	–
CN(C)c1ccc(O)c2c1CC1CC3CC(O)=C(C(N)=O)C(=O)C3(O)C(O)=C1C2=O (stereo not shown) [COL 10, 4-dedimethylaminominocycline]	2.04	–
O=C(NCN1CCCCC1)C1=C(O)CC2CC3Cc4cccc(O)c4C(=O)C3=C(O)C2(O)C1=O (stereo not shown) [COL 313, 2-CONHCH2-piperidin-1-yl-6-demethyl-6-deoxy-4-dedimethylaminotetracycline]	58.22	–
NC(=O)C1=C(O)CC2CC3Cc4c([N+](=O)[O-])ccc(O)c4C(=O)C3=C(O)C2(O)C1=O (stereo not shown) [COL 302, 7-nitro-6-demethyl-6-deoxy-4-dedimethylaminotetracycline]	23.32	–
CN(C)CC(=O)Nc1ccc2c(c1O)C(=O)C1=C(O)C3(O)C(=O)C(C(N)=O)=C(O)CC3CC1C2 (stereo not shown) [COL 309, 9-dimethylaminoacetamido-6-demethyl-6-deoxy-4-dedimethylaminotetracycline]	12.87	–

Same assay, conditions: BALB/c 3T3 cells, cytotoxicity with vs without 5 J/cm^2 UVA, neutral red; OECD draft guideline 432 software

Compound	MPE (mean photo effect)
COL 2	0.005

Same assay, conditions: mouse, 110 min

Compound	PIF 2 (photoirritancy factor, IC50(-UVA)/IC50(+UVA), OECD draft guideline 432)
CN(C)CCCN1c2ccccc2Sc2ccc(Cl)cc21 [Chlorpromazine, reference compound]	40.38
C[C@H]1c2cccc(O)c2C(=O)C2=C(O)[C@]3(O)C(=O)C(C(N)=O)=C(O)[C@@H](N(C)C)[C@@H]3[C@@H](O)[C@@H]21 [Doxycycline, doxycycline, reference compound]	26.71
